Data: PubChem BioAssay (NCI)
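The compound was tested at five concentrations on cells cultured in 96-well plates, with a 48-hour exposure period. TGI: concentration producing complete growth inhibition.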

Tests used:
Assay in all cases: DTP human tumour cell line panel, 48 h
[1] = tested on: U251 CNS
[2] = tested on: T-47D breast
[3] = tested on: PC-3 prostate
[4] = tested on: HCC-2998 colon
[5] = tested on: SF-295 CNS
[6] = tested on: HOP-62 NSCLC
[7] = tested on: NCI-H23 lung
[8] = tested on: MDA-MB-231 breast
[9] = tested on: HOP-92 NSCLC
[10] = tested on: RXF 393 renal
[11] = tested on: OVCAR-5 ovarian
[12] = tested on: SW-620 colon
[13] = tested on: EKVX NSCLC
[14] = tested on: K-562 leukemia
[15] = tested on: HL-60(TB) leukemia
[16] = tested on: SR leukemia
[17] = tested on: IGROV1 ovarian
[18] = tested on: UO-31 renal
[19] = tested on: DU-145 prostate
[20] = tested on: A549 NSCLC
[21] = tested on: SK-OV-3 ovarian
[22] = tested on: HCT-15 colon
[23] = tested on: SK-MEL-5 melanoma
[24] = tested on: OVCAR-8 ovarian
[25] = tested on: CCRF-CEM leukemia
[26] = tested on: UACC-62 melanoma
[27] = tested on: MDA-N
[28] = tested on: OVCAR-3 ovarian
[29] = tested on: TK-10 renal
[30] = tested on: MOLT-4 leukemia
[31] = tested on: MCF7 breast
[32] = tested on: SNB-19 CNS
[33] = tested on: SN12C renal
[34] = tested on: MALME-3M melanoma
[35] = tested on: HT29 colon
[36] = tested on: ACHN renal
[37] = tested on: SF-539 CNS
[38] = tested on: KM12 colon
[39] = tested on: 786-0 renal
[40] = tested on: NCI-H226 lung
[41] = tested on: HCT-116 colon
[42] = tested on: NCI/ADR-RES ovarian
[43] = tested on: SK-MEL-2 melanoma
[44] = tested on: A498 renal
[45] = tested on: SK-MEL-28 melanoma
[46] = tested on: MDA-MB-435
[47] = tested on: SF-268 CNS
[48] = tested on: M14 melanoma
[49] = tested on: HS 578T breast
[50] = tested on: NCI-H460 lung
[51] = tested on: LOX IMVI melanoma
[52] = tested on: SNB-75 CNS
[53] = tested on: COLO 205 colon
[54] = tested on: OVCAR-4 ovarian
[55] = tested on: UACC-257 melanoma
[56] = tested on: NCI-H522 lung
[57] = tested on: RPMI-8226 leukemia

**Q.** With `CC12CP(=O)(c3ccccc3)CC1c1ccccc1C2c1ccccc1` (stereo unspecified) as the compound, how does the TGI [1] read?
**A.** 36.7 µM

**Q.** And the TGI [2]?
**A.** 37.5 µM

**Q.** What about the TGI [3] of the same compound?
**A.** 27.1 µM

**Q.** And the TGI [4]?
**A.** 33.9 µM

**Q.** And the TGI [5]?
**A.** 29.8 µM

**Q.** What about the TGI [6] of the same compound?
**A.** 35.4 µM

**Q.** And the TGI [7]?
**A.** 41.8 µM

**Q.** What about the TGI [8] of the same compound?
**A.** 40.1 µM

**Q.** And the TGI [9]?
**A.** 50 µM

**Q.** What about the TGI [10] of the same compound?
**A.** 46.6 µM

**Q.** And the TGI [11]?
**A.** > 100 µM

**Q.** And the TGI [12]?
**A.** 33.2 µM

**Q.** What about the TGI [13] of the same compound?
**A.** 44.6 µM

**Q.** What about the TGI [14] of the same compound?
**A.** 25.5 µM

**Q.** What about the TGI [15] of the same compound?
**A.** 28.5 µM

**Q.** And the TGI [16]?
**A.** 29.8 µM

**Q.** What about the TGI [17] of the same compound?
**A.** 46 µM

**Q.** And the TGI [18]?
**A.** 30.4 µM

**Q.** And the TGI [19]?
**A.** 64 µM

**Q.** And the TGI [20]?
**A.** 36.2 µM

**Q.** What about the TGI [21] of the same compound?
**A.** > 100 µM

**Q.** What about the TGI [22] of the same compound?
**A.** 27.2 µM

**Q.** And the TGI [23]?
**A.** 55.1 µM

**Q.** And the TGI [24]?
**A.** 28.6 µM

**Q.** And the TGI [25]?
**A.** 23.5 µM

**Q.** And the TGI [26]?
**A.** > 100 µM

**Q.** And the TGI [27]?
**A.** 33.6 µM

**Q.** And the TGI [28]?
**A.** 31.7 µM

**Q.** What about the TGI [29] of the same compound?
**A.** > 100 µM

**Q.** What about the TGI [30] of the same compound?
**A.** 31 µM

**Q.** What about the TGI [31] of the same compound?
**A.** > 100 µM

**Q.** And the TGI [32]?
**A.** > 100 µM

**Q.** What about the TGI [33] of the same compound?
**A.** 32.2 µM

**Q.** And the TGI [34]?
**A.** 30.3 µM

**Q.** What about the TGI [35] of the same compound?
**A.** 28.8 µM

**Q.** And the TGI [36]?
**A.** 41.1 µM

**Q.** And the TGI [37]?
**A.** 34.1 µM

**Q.** And the TGI [38]?
**A.** 33.6 µM

**Q.** And the TGI [39]?
**A.** 32.8 µM

**Q.** And the TGI [40]?
**A.** 44.1 µM

**Q.** What about the TGI [41] of the same compound?
**A.** 30.4 µM

**Q.** What about the TGI [42] of the same compound?
**A.** 32.7 µM

**Q.** And the TGI [43]?
**A.** 49.4 µM

**Q.** What about the TGI [44] of the same compound?
**A.** > 100 µM

**Q.** And the TGI [45]?
**A.** 75 µM

**Q.** And the TGI [46]?
**A.** 30.1 µM

**Q.** And the TGI [47]?
**A.** 67 µM

**Q.** And the TGI [48]?
**A.** 31.8 µM

**Q.** And the TGI [49]?
**A.** > 100 µM

**Q.** What about the TGI [50] of the same compound?
**A.** 27.6 µM

**Q.** With `CC1(CO)COC(C)(C)OC1` as the compound, how does the TGI [1] read?
**A.** > 100 µM

**Q.** And the TGI [2]?
**A.** > 100 µM

**Q.** What about the TGI [3] of the same compound?
**A.** > 100 µM

**Q.** What about the TGI [51] of the same compound?
**A.** > 100 µM

**Q.** What about the TGI [52] of the same compound?
**A.** > 100 µM

**Q.** And the TGI [53]?
**A.** > 100 µM

**Q.** What about the TGI [4] of the same compound?
**A.** > 100 µM

**Q.** What about the TGI [5] of the same compound?
**A.** > 100 µM

**Q.** And the TGI [54]?
**A.** > 100 µM

**Q.** What about the TGI [7] of the same compound?
**A.** > 100 µM

**Q.** And the TGI [8]?
**A.** > 100 µM

**Q.** What about the TGI [9] of the same compound?
**A.** > 100 µM

**Q.** What about the TGI [10] of the same compound?
**A.** > 100 µM

**Q.** And the TGI [12]?
**A.** > 100 µM

**Q.** And the TGI [16]?
**A.** > 100 µM

**Q.** And the TGI [18]?
**A.** > 100 µM

**Q.** And the TGI [19]?
**A.** > 100 µM

**Q.** And the TGI [20]?
**A.** > 100 µM

**Q.** And the TGI [21]?
**A.** > 100 µM

**Q.** What about the TGI [22] of the same compound?
**A.** > 100 µM

**Q.** And the TGI [23]?
**A.** > 100 µM

**Q.** And the TGI [24]?
**A.** > 100 µM

**Q.** And the TGI [25]?
**A.** > 100 µM

**Q.** And the TGI [27]?
**A.** > 100 µM

**Q.** And the TGI [28]?
**A.** > 100 µM

**Q.** And the TGI [29]?
**A.** > 100 µM

**Q.** And the TGI [30]?
**A.** > 100 µM

**Q.** What about the TGI [31] of the same compound?
**A.** > 100 µM

**Q.** And the TGI [32]?
**A.** > 100 µM

**Q.** And the TGI [33]?
**A.** > 100 µM

**Q.** What about the TGI [55] of the same compound?
**A.** > 100 µM

**Q.** And the TGI [35]?
**A.** > 100 µM

**Q.** What about the TGI [56] of the same compound?
**A.** > 100 µM

**Q.** What about the TGI [36] of the same compound?
**A.** > 100 µM

**Q.** And the TGI [38]?
**A.** > 100 µM

**Q.** And the TGI [40]?
**A.** > 100 µM

**Q.** And the TGI [41]?
**A.** > 100 µM

**Q.** And the TGI [42]?
**A.** > 100 µM

**Q.** And the TGI [44]?
**A.** > 100 µM

**Q.** And the TGI [45]?
**A.** > 100 µM

**Q.** What about the TGI [46] of the same compound?
**A.** > 100 µM

**Q.** What about the TGI [47] of the same compound?
**A.** > 100 µM

**Q.** And the TGI [49]?
**A.** > 100 µM

**Q.** And the TGI [50]?
**A.** > 100 µM

**Q.** What does the source list for `Oc1ccc(O)c(Cc2ccccc2)c1`?
**A.** TGI [1]: 45.8 µM; TGI [2]: 11.8 µM; TGI [3]: > 100 µM; TGI [51]: 41 µM; TGI [53]: 32.6 µM; TGI [4]: > 100 µM; TGI [5]: > 100 µM; TGI [54]: 27.2 µM; TGI [6]: 60.3 µM; TGI [7]: > 100 µM; TGI [8]: 46.6 µM; TGI [9]: 35.6 µM; TGI [11]: > 100 µM; TGI [12]: 56.9 µM; TGI [13]: > 100 µM; TGI [14]: 25.8 µM; TGI [57]: 21.3 µM; TGI [15]: 4.14 µM; TGI [16]: 14.5 µM; TGI [18]: 28.4 µM; TGI [19]: 22.8 µM; TGI [20]: > 100 µM; TGI [21]: > 100 µM; TGI [22]: 29.1 µM; TGI [23]: 37.9 µM; TGI [24]: 33.9 µM; TGI [25]: > 100 µM; TGI [26]: 56.1 µM; TGI [27]: 41.5 µM; TGI [28]: 7.8 µM; TGI [29]: 51.3 µM; TGI [30]: 22.8 µM; TGI [31]: 29.4 µM; TGI [32]: > 100 µM; TGI [33]: 38.6 µM; TGI [34]: 88.9 µM; TGI [55]: 99.5 µM; TGI [35]: > 100 µM; TGI [36]: 28.7 µM; TGI [37]: 23 µM; TGI [38]: 65.2 µM; TGI [39]: 33.7 µM; TGI [40]: 57.2 µM; TGI [42]: 42.9 µM; TGI [43]: 37.3 µM; TGI [44]: > 100 µM; TGI [45]: > 100 µM; TGI [46]: 42 µM; TGI [47]: 27.8 µM; TGI [48]: 73.9 µM; TGI [49]: > 100 µM; TGI [50]: 49.5 µM
